Results published in the NIST ThermoML archive (doi:10.1016/j.jct.2015.02.001).
Several values for one entry are separate records, joined by “and”; a condition that tells them apart may be missing. Equal entries are not always repeated. Numbers after ± are expanded uncertainties.

Details: Liquid, Transpiration method

COc1ccccc1C [1-methoxy-2-methylbenzene]
Details	vapor or sublimation pressure
275.8 K	0.035 ± 0.0023 kPa
277.7 K	0.0405 ± 0.0025 kPa
278.7 K	0.0432 ± 0.0028 kPa
280.6 K	0.0504 ± 0.0033 kPa
282.6 K	0.0599 ± 0.0038 kPa
285.7 K	0.0735 ± 0.0047 kPa
286.8 K	0.0821 ± 0.0053 kPa
290.2 K	0.1038 ± 0.0065 kPa
293.4 K	0.1308 ± 0.0083 kPa
296.2 K	0.1606 ± 0.01 kPa
298.2 K	0.1819 ± 0.011 kPa
300.2 K	0.2111 ± 0.013 kPa and 0.2117 ± 0.013 kPa
303.3 K	0.2601 ± 0.016 kPa
305.1 K	0.2865 ± 0.018 kPa
308 K	0.3491 ± 0.022 kPa

COc1cccc(C)c1 [1-methoxy-3-methylbenzene]
Details	vapor or sublimation pressure [kPa]
276.7 K	0.0285 ± 0.0018
277.8 K	0.0314 ± 0.002
280.6 K	0.0395 ± 0.0025
284.7 K	0.0541 ± 0.0035
289.4 K	0.0804 ± 0.005
291.9 K	0.094 ± 0.006
297.7 K	0.1433 ± 0.009
301.1 K	0.1806 ± 0.011
304.1 K	0.2286 ± 0.014
305 K	0.2433 ± 0.015
308 K	0.3006 ± 0.019
310 K	0.3363 ± 0.021
312.2 K	0.4058 ± 0.026

COc1ccc(C)cc1 [1-methoxy-4-methylbenzene]
Details	vapor or sublimation pressure
275.2 K	0.0275 ± 0.0018 kPa
276.4 K	0.031 ± 0.002 kPa
277.2 K	0.0326 ± 0.0021 kPa
278.8 K	0.0379 ± 0.0025 kPa
281.7 K	0.0478 ± 0.003 kPa
284.8 K	0.0612 ± 0.004 kPa
287.5 K	0.0759 ± 0.0048 kPa
289.2 K	0.0861 ± 0.0055 kPa
290.4 K	0.095 ± 0.006 kPa
291.2 K	0.0997 ± 0.0064 kPa
291.3 K	0.1015 ± 0.0065 kPa
294.2 K	0.1267 ± 0.008 kPa
296.2 K	0.1436 ± 0.009 kPa
297.1 K	0.1563 ± 0.0099 kPa
299.2 K	0.1817 ± 0.011 kPa
300.1 K	0.1942 ± 0.012 kPa and 0.2003 ± 0.013 kPa
301.1 K	0.2085 ± 0.013 kPa
303.1 K	0.2465 ± 0.016 kPa
305 K	0.2782 ± 0.018 kPa
308 K	0.3386 ± 0.021 kPa
